From patent US20060239915A1, “Labeled macrophage scavenger receptor antagonists for imaging cardiovascular diseases” (priority 2002, published 2006)
Read-outs that look alike come from different tables or passages of the source.

Columns and labels:
[1] = molecular target: T1, MSRA on THP-1 cells (Homo sapiens, UniProt P21757); experiment: Cell competition assay with 125I-imaging agent 2, THP-1 cells; settings: competition for binding of 125I imaging agent 2, THP-1 cells, n=3
T1 construct: Cells became adherent and expressed MSRA; endogenous in cells; host or cells: THP-1 (ECACC), differentiated with PMA
T1 sequence (P21757 1-451): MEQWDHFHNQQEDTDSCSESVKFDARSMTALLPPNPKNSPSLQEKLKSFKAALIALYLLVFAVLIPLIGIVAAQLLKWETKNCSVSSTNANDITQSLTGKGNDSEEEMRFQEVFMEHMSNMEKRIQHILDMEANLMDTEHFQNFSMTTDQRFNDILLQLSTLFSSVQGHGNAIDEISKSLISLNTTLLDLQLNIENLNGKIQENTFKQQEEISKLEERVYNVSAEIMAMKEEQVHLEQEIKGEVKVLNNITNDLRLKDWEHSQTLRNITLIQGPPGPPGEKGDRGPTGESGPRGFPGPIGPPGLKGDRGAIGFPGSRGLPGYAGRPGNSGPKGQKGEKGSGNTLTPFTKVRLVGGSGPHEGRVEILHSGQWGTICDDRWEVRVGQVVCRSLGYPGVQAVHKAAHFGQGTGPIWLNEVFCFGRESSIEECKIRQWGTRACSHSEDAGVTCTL
Method: Experiments were carried out on THP-1 cells. THP-1 cells (human monocyte ECACC) are suspension cells and were cultured in RPMI-1640 medium (Sigma, Cat no. R0883) containing penicillin/streptomycin (Sigma, Cat no. P4458), 2 mM glutamine (Sigma, Cat no. G7513) and 10% foetal bovine serum (FBS; Sigma, Cat no. F-7524). Cells were routinely passaged at 2×10^5 cells/ml in 162 cm^2 flasks. For assays with ^125I-acLDL, cells were seeded at 1×10^5 cells/well/ml in 24 well plates 4-6 days prior to assay and 400 ng/ml phorbol myristate acetate (PMA) added to differentiate THP-1 cells. Cells became adherent and expressed MSRA. For assays with ^125I imaging agent 2, THP-1 cells were seeded at 1.5×10^5 cells/well/ml in 24 well plates 4-6 days prior to assay with 400 ng/ml PMA.
(§1) Experiments were carried out in THP-1 and CHO-SRA cells to assess competition for binding of ^125I imaging agent 2 by acLDL, oxLDL and non-radioactive imaging agent 2.
THP-1 cells were cultured as described in Example 13 above.

[2] = molecular target: T2, human SR-A on CHO-SRA cells (Homo sapiens, UniProt P21757); experiment: Cell competition assay with 125I-imaging agent 2, CHO-SRA cells; settings: competition for binding of 125I imaging agent 2, CHO-SRA cells, n=3; read-out: Mean IC50 (one site competition)
T2 construct: expressed in transfected cells; host or cells: CHO (hamster ovary) cells, line CHO-SRA
T2 sequence (P21757 1-451): T1 sequence (P21757 1-451)
Method: as §1
CHO-SRA cells are adherent hamster ovary cells expressing human SR-A and were cultured in Hams F-12 medium containing penicillin/streptomycin, 2 mM glutamine, HEPES buffer (7 ml per 500 ml media), 3% filter-sterilised lipoprotein-deficient serum (LPDS; Sigma cat. no. S5394), 40 μM compactin/mevastatin (Sigma cat. no. M2537), 250 μM mevalonic acid lactone (Sigma cat. no. M4667), and 3 μg/ml acetylated LDL (AcLDL; Biogenesis, Cat no. 5685-3404). For assays with ^125I-acLDL, cells were seeded at 1×10^5 cells/well/ml in 24 well plates 24 hours prior to assay. For assays with ^125I imaging agent 2, CHO-SRA cells were seeded at 1.5×10^5 cells/well/ml in 24 well plates 24 hours prior to assay.

O=C(Nc1ccc(I)cc1)c1cc(Br)ccc1NS(=O)(=O)c1ccc(Cl)cc1 [non-radioactive imaging agent 2]
IC50 ([1]; read-out: Mean IC50 (two site kinetics, first value)): 0.079 ± 0.02 µM
IC50 ([1]; read-out: Mean IC50 (two site kinetics, second value)): 14.5 ± 5.8 µM
IC50 [2]: 30 ± 12 µM
